The record followed here is the Deep4Chem optical property database.

Where “and” joins values, the source holds several entries; their conditions need not be identical. Equal values may be shown once.

The data set is described as follows: solvent given as SMILES.

Regarding `Cc1cc(C)c(C2=C3C=c4c(c5ccc(C(C)(C)C)cc5c5cc(C(C)(C)C)ccc45)=[N+]3[B-](F)(F)n3c2cc2c4ccc(C(C)(C)C)cc4c4cc(C(C)(C)C)ccc4c23)c(C)c1`, the emission maximum by setting is: (in C1CCCCC1) 707 nm; (in C1CCOC1) 711 nm; (in CC#N) 711 nm; (in Cc1ccccc1) 715 nm; (in ClCCl) 715 nm.
Regarding `C[C@]12SC(=O)C=C1c1nc(-c3ccc(Cl)cc3)[nH]c1C1=CC(=O)S[C@@]12C`, where the note is “in CC#N”, the emission maximum is listed as 509 nm.
`O=C1c2ccc3c4c(Oc5ccccc5)cc5c6c(ccc(c7c(Oc8ccccc8)cc(c2c37)C(=O)N1c1ccc(O)cc1)c64)C(=O)N(c1ccc(O)cc1)C5=O`: the emission maximum is 564 nm (in C1CCOC1), 592 nm (in CN1CCCC1=O) and 576 nm (in CN(C)C=O).
In turn, `Nc1ccccc1C(=O)O` yielded an emission maximum (in C1CCCCC1) of 387 nm; an emission maximum (in C1COCCO1) of 395 nm; an emission maximum (in CC#N) of 397 nm; an emission maximum (in CC(C)=O) of 394 nm; an emission maximum (in CCO) of 407 nm; an emission maximum (in CO) of 406 nm. Besides, the emission maximum is 400 nm (in CS(C)=O); 400 nm and 397 nm (in O); 423 nm (in OCC(F)(F)F); 394 nm (in c1ccccc1).
As for `c1cc2c(C3SCCCS3)c3ccc(=[N+]4CCCCC4)cc-3oc2cc1N1CCCCC1`, the emission maximum (in CO) is reported as 606.31 nm.
Regarding `c1ccc(-c2nc(-c3ccccc3)nc(-c3ccc(-n4c5ccc(-n6c7ccccc7c7ccccc76)cc5c5cc(-n6c7ccccc7c7ccccc76)ccc54)cc3)n2)cc1`, the emission maximum was 458 nm (in Cc1ccccc1); 475 nm and 450.31 nm (in O=P(c1ccccc1)(c1ccccc1)c1ccccc1Oc1ccccc1P(=O)(c1ccccc1)c1ccccc1).
Take `O=C1c2ccc3c4ccc5c6c(ccc(c7ccc(c2c37)C(=O)N1c1ccncc1)c64)C(=O)N(c1ccncc1)C5=O`: the emission maximum is, setting by setting: (in C1CCOC1) 570 nm; (in C1COCCO1) 572 nm; (in CC(C)=O) 570 nm; (in CC(C)O) 572 nm; (in CCCCO) 570 nm; (in CCO) 569 nm. Further, the emission maximum by setting is: (in CCOC(C)=O) 567 nm; (in CN(C)C=O) 574 nm; (in CO) 569 nm; (in CS(C)=O) 580 nm; (in ClC(Cl)(Cl)Cl) 573 nm; (in ClC(Cl)Cl) 576 nm.
Turning to `C1=C(c2ccccc2)S[C@]23C1=C(c1ccccc1)[C@H](c1ccccc12)c1ccccc13`, under “in ClCCl”, the emission maximum stood at 491 nm.
As to `CC1(C)c2ccccc2N(c2ccc(-c3nnc(-c4cc(-c5ccccc5)c(-c5ccccc5)c(-c5ccccc5)c4-c4ccccc4)o3)cc2)c2ccccc21`, the emission maximum by setting is: (in Cc1ccccc1) 445 nm; (in c1ccc(-n2c(-c3c(-n4c5ccccc5c5ccccc54)cccc3-n3c4ccccc4c4ccccc43)nc3ccccc32)cc1) 453 nm.
With `C(/C=C/c1cc2c3c(c1)CCCN3CCC2)=C\c1ccncc1`, the emission maximum reads like this: (in C1COCCO1) 518 nm; (in CC#N) 569 nm; (in CCCCCCC) 442 nm; (in CO) 583 nm.
`Cc1ccccc1/C(C#N)=C/c1ccc(N(C)C)cc1`: the emission maximum reads like this: (in C1CCOC1) 484 nm; (in C1COCCO1) 476 nm; (in CC#N) 427 nm; (in CCCCCC) 431 nm; (in CCCCCCC) 433 nm; (in CCCCCO) 495 nm. Moreover, the emission maximum is 502 nm (in CCCCO); 505 nm (in CCCO); 509 nm (in CCO); 490 nm (in CCOC(C)=O); 456 nm (in CN(C)C=O); 450 nm (in CO). In addition, the emission maximum runs as follows: (in CS(C)=O) 453 nm; (in Cc1ccccc1) 464 nm; (in ClC(Cl)Cl) 481 nm.
The compound `Cc1ccc(/C2=c3\cc/c(o3)=C(\c3ccc(C)cc3)c3ccc([nH]3)-c3ccc4n3[B-](F)(F)[N+]3=C(C=CC3=C4c3ccco3)c3ccc2[nH]3)cc1` showed an emission maximum (in ClC(Cl)Cl) of 731 nm.
For the setting “in CS(C)=O”, `Clc1ccccc1-c1nc2sc3ccccc3c2s1` gave an emission maximum of 412 nm.
With `CC(C)c1cccc(C(C)C)c1N1C(c2ccccc2)=Cc2ccc3ccccc3[n+]2[B-]1(F)F`, the emission maximum (in ClCCl) amounted to 472 nm.
With `CCCCNc1ccc2n1[B-](F)(F)[N+]1=CC(/C=C/C(=O)OC(C)(C)C)=CC1=C2c1c(C)cc(C)cc1C`, the emission maximum (in ClCCl) was 546 nm.
Where the note is “in CC#N”, `c1ccc(-c2nc(-c3cccs3)[nH]c2-c2ccccc2)cc1` had an emission maximum of 391 nm.
